What was measured:
Test in all cases: relative viability (nuclei count vs DMSO), 5 days (fraction); higher = more cells survive
GW-2580 = compound: COC1=CC=C(C=C1)COC2=C(C=C(C=C2)CC3=CN=C(N=C3N)N)OC [GW-2580]
How it was run: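 Five library-drug doses spaced by √10 were pinned onto vehicle-anchored 1536-well plates of lung cancer cell lines that had been kept overnight at 37 °C. Cells went 5 days without medium change, then were fixed, permeabilised and Hoechst-stained together, imaged at 4× and counted by MetaXpress. Viability is the ratio of treated-well to vehicle-well nuclei, taken as a median over plates. Plates required control CV below 25% and at least one doubling.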

Fedratinib + Crizotinib = compound: Cc1cnc(Nc2ccc(OCCN3CCCC3)cc2)nc1Nc1cccc(S(=O)(=O)NC(C)(C)C)c1 [Fedratinib] + C[C@@H](Oc1cc(-c2cnn(C3CCNCC3)c2)cnc1N)c1c(Cl)ccc(F)c1Cl [Crizotinib] (partner 1 µM)
How it was run: (§1)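 Lung cancer cell lines in 1536-well plates got either a single drug or a fixed anchor-drug dose together with five library-drug doses (not always all listed) in √10 steps, by pin tool, on the day after seeding. Nuclei were counted after 5 days, and relative viability is the treated-to-vehicle ratio of nuclei counts. Values are medians of duplicate plates.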

GW-2580 + Alpelisib = compound: COC1=CC=C(C=C1)COC2=C(C=C(C=C2)CC3=CN=C(N=C3N)N)OC [GW-2580] + Cc1nc(NC(=O)N2CCC[C@H]2C(N)=O)sc1-c1ccnc(C(C)(C)C(F)(F)F)c1 [Alpelisib] (partner 2 µM)
How it was run: as §1

GW-2580 + Dasatinib = compound: COC1=CC=C(C=C1)COC2=C(C=C(C=C2)CC3=CN=C(N=C3N)N)OC [GW-2580] + Cc1nc(Nc2ncc(C(=O)Nc3c(C)cccc3Cl)s2)cc(N2CCN(CCO)CC2)n1 [Dasatinib] (partner 0.075 µM)
How it was run: as §1

Fedratinib + Foretinib = compound: Cc1cnc(Nc2ccc(OCCN3CCCC3)cc2)nc1Nc1cccc(S(=O)(=O)NC(C)(C)C)c1 [Fedratinib] + COc1cc2c(Oc3ccc(NC(=O)C4(C(=O)Nc5ccc(F)cc5)CC4)cc3F)ccnc2cc1OCCCN1CCOCC1 [Foretinib] (partner 0.25 µM)
How it was run: as §1

| Cell Line | relative viability (GW-2580; 0.08 µM) | relative viability (GW-2580; 0.8 µM) | relative viability (GW-2580; 2.53 µM) | relative viability (GW-2580; 8 µM) | relative viability (Fedratinib + Crizotinib; first compound 0.1 µM) | relative viability (Fedratinib + Crizotinib; first compound 0.3162 µM) | relative viability (Fedratinib + Crizotinib; first compound 1 µM) | relative viability (GW-2580 + Alpelisib; first compound 0.08 µM) | relative viability (GW-2580 + Alpelisib; first compound 0.8 µM) | relative viability (GW-2580 + Alpelisib; first compound 2.53 µM) | relative viability (GW-2580 + Alpelisib; first compound 8 µM) | relative viability (GW-2580 + Dasatinib; first compound 0.08 µM) | relative viability (GW-2580 + Dasatinib; first compound 0.8 µM) | relative viability (GW-2580 + Dasatinib; first compound 2.53 µM) | relative viability (GW-2580 + Dasatinib; first compound 8 µM) | relative viability (Fedratinib + Foretinib; first compound 0.1 µM) | relative viability (Fedratinib + Foretinib; first compound 0.3162 µM) | relative viability (Fedratinib + Foretinib; first compound 1 µM) |
| --- | --- | --- | --- | --- | --- | --- | --- | --- | --- | --- | --- | --- | --- | --- | --- | --- | --- | --- |
| 201T | 0.974 | 1.13 | 1.06 | 0.959 | 1.01 | 1.04 | 0.99 | 1.02 | 1.1 | 1.01 | 1.01 | 0.637 | 0.544 | 0.509 | 0.532 | 1.1 | 1.08 | 0.895 |
| A549 | 1.01 | 1.12 | 0.944 | 0.932 | 0.638 | 0.609 | 0.687 | 0.723 | 0.688 | 0.721 | 0.764 |  |  |  |  | 0.896 | 0.938 | 0.892 |
| A-427 | 1.05 | 1.11 | 0.86 | 0.881 | 0.802 | 0.755 | 0.686 | 1.08 | 1.12 | 1.02 | 1.09 | 0.758 | 0.794 | 0.511 | 0.735 | 1.04 | 1 | 1.05 |
| ABC-1 | 0.956 | 1.14 | 0.869 | 0.883 | 0.566 | 1.1 | 0.769 | 1.36 | 0.944 | 0.93 | 0.891 | 0.559 | 0.675 | 0.55 | 0.534 | 1.03 | 1.22 | 0.96 |
| BEN | 0.949 | 1.08 | 0.776 | 0.905 | 0.716 | 0.91 | 0.784 | 0.996 | 1.07 | 1.04 | 1.03 | 0.267 | 0.397 | 0.222 | 0.308 | 0.685 | 0.683 | 0.472 |
| CAL-12T | 0.995 | 1.03 | 0.933 | 1.01 | 0.262 | 0.588 | 0.322 | 1.45 |  | 1.19 | 1.06 | 0.485 | 0.443 | 0.438 | 0.505 | 0.934 | 0.992 | 1.08 |
| COR-L23 | 1.15 | 1.12 | 1.03 | 0.932 | 0.55 | 0.526 | 0.486 | 0.856 | 0.83 | 0.611 | 0.815 | 0.566 | 0.502 | 0.519 | 0.464 | 0.912 | 0.838 | 0.921 |
| COR-L 105 | 1.01 | 1.05 | 0.932 | 0.908 | 0.539 | 0.686 | 0.391 | 0.91 | 1.28 | 0.946 | 0.902 | 0.314 | 0.373 | 0.28 | 0.342 | 0.866 | 1.03 | 0.676 |

Reference: the supplement of paper PMC10307832
